Source: patent US7858585B2, “Hydrogels and uses thereof” (University of Delaware, priority 2005, dated 2010)

What was measured:
C3H10t1/2 cells = experiment: Live/Dead assay of encapsulated cells after shear thin delivery; format: cell-based; details: 0.5 wt % hydrogel, three hours after delivery
Procedure: Lastly, the effect of shear thin delivery on cell viability was assessed by performing a Live-Dead assay on cells that had been encapsulated into a 0.5 wt % HPL8 hydrogel and subsequently shear thin delivered to a LSCM well FIG. 33c. In this micrograph, cells contained within the interior of the gel are visualized by viewing from the top of the gel (along the z-axis, depth of field is 90 μm.). Three hours after the gel/cell construct had been shear-thin delivered, calcien AM and ethidium homodimer were added to the top of the gel, which freely diffuse through the gel network, staining live cells green and dead cells red, respectively. […] In fact, the limited degree of cell death observed in FIG. 33c is nearly identical to that of the control experiment where cells were encapsulated in HPL8 hydrogel but not shear thin delivered (FIG. 35).
C3H10t1/2 cell growth conditions are 90% DMEM supplemented with 25 mM HEPES, 10% FBS, 5 mM L-glutamine, and 50 μg/mL Gentamicin at 37° C., 5% CO2. For confocal micrographs of hydrogels impregnated with pre-labeled cells, a suspension of 1.5 e6 cells/mL were incubated in a solution of 5 μM cell tracker green in DMEM for 45 min. […] Viability of encapsulated cells in 0.5 wt % hydrogels (before and after shear thinning) was assessed via a Live/Dead assay at 3 hr after encapsulation. […]

[1] = system: C3H10t1/2 mesenchymal stem cells; experiment: Encapsulation of mesenchymal stem cells in hydrogel, LSCM imaging of cell distribution; format: cell-based
Description: For example, FIG. 29 contains a Laser Scanning Confocal Microscopy (LSCM) cross-sectional view of C3H10t1/2 cells encapsulated within a 0.5 wt % MAX1 hydrogel. In this micrograph, cells contained within the interior of the gel are visualized from the side of the gel (along the y-axis, depth of field is 920 μm); the top and bottom of the image is the top and bottom of the gel, respectively. Cells are encapsulated by first dissolving 1.0 wt % MAX1 in buffer at pH 7.4. To this solution, an equal volume (50 μL) of DMEM cell culture medium containing 250,000 cells is added. The salt within the DMEM electrostatically screens the lysine side chain charges resulting in peptide folding and consequent self-assembly. This simple one-to-one addition of solutions affords gels impregnated with cells. However, it is clear in FIG. 29 that the hydrogelation kinetics of MAX1 are not fast enough to entrap the cells homogeneously since a majority of the cells sediment to the bottom of the gel sample well.
C3H10t1/2 cell growth conditions are 90% DMEM supplemented with 25 mM HEPES, 10% FBS, 5 mM L-glutamine, and 50 μg/mL Gentamicin at 37° C., 5% CO2. […] Viability of encapsulated cells in 0.5 wt % hydrogels (before and after shear thinning) was assessed via a Live/Dead assay at 3 hr after encapsulation. […]

[2] = CD kinetics of β-sheet formation ([θ]216) after addition of DMEM; format: physicochemical; details: 0.5 wt %, pH 7.4, 37° C.
Procedure: (§1) To a vial containing 1 mg of peptide, 100 μL of 25 mM HEPES, pH 7.4 was added resulting in a soluble 1 wt % peptide solution. To this solution, an equal volume of DMEM supplemented with 25 mM HEPES, pH 7.4 was added to initiate self-assembly, resulting in a 0.5 wt % hydrogel. All hydrogels were prepared by this method unless otherwise stated.
CD kinetic spectra were collected on a Jasco J-810 spectropolarimeter employing 0.1 mm quartz water-jacketed cell. Peptide samples were prepared as stated above, transferred to the cell at 37° C. The ellipiticity in millidegrees were monitored at 216 nm as a function of time. Following the kinetic measurement, a wavelength scan was recorded at 37° C. using a 2 nm step size. The concentrations of MAX1 and HPL8 stock solutions were determined by absorbance (λ220=15750 cm-1.M-1) after dilution with water. Mean residue ellipticity [θ]=(θobs/10.1.c)/r, where θobs is the measured ellipticity in millidegrees, l is the length of the cell (cm), c is the concentration (M) and r is the number of residues.

[3] = Oscillatory rheology of 0.5 wt % MAX1 and HPL8 hydrogels in DMEM, pH 7.4, 37° C.; format: physicochemical
Procedure: as §1
Oscillatory rheology experiments were performed on a TA Instruments rheometer (AR 2000) with a 25 mm diameter stainless steel parallel plate geometry with a gap height of 0.5 mm. All measurements were acquired at 37° C. For dynamic time sweeps (DTS) the hydrogels were prepared as stated above and quickly transferred to the rheometer where the storage modulus (G′) was monitored as a function of time, frequency=6 rad. sec-1 and strain=0.2%. For the shear thinning experiments, a DTS was preformed for 10 min at which time 1000% stain was applied for 30 seconds to shear thin the material. After which time, the strain was decreased to 0.2% and G′ monitored as a function of time. Dynamic frequency, dynamic strain and dynamic time sweep measurements measuring both G′ and the loss modulus (G″) are provided in FIG. 36.

VKVKVKVKV^DPPTKVEVKVKV-NH2 [HPL8]
cell viability after shear thin delivery (C3H10t1/2 cells): majority of the cells remain viable | distribution of cells encapsulated in gel ([1]; 0.5 wt % gel, 250K cells in DMEM, pH 7.4, 37° C.): homogeneous distribution of cells | distribution of cells after shear thinning via syringe ([1]; 0.5 wt % gel/cell construct formed in a syringe): still retain the homogeneous cell distribution | time to completely fold and self-assemble affording gel [2]: under a minute | G′ within the first 40 seconds ([3]; pH 7.4, 37° C.): > 100 Pa | G′ at five minutes ([3]; phase I initial gelation): 450 Pa | G′ within a minute ([3]; phase I initial gelation): > 100 Pa
